# From patent US20200255411A1, “ISOINDOLINE DERIVATIVES” (VIIV HEALTHCARE UK LIMITED, priority 2015, published 2020)
# Test system: HIV in the HTLV-1 transformed cell line MT-4
# Assay: MT4 assay (antiviral HIV activity)
# Assay type: cell-based
# Conditions: MT-4 cells, readout at 96 hours with cell titer glo, 10 point dose response
# Description: Antiviral HIV activity and cytotoxicity values for compounds of the invention from Table 1 were measured in parallel in the HTLV-1 transformed cell line MT-4 based on the method previously described (Hazen et al., 2007, In vitro antiviral activity of the novel, tyrosyl-based human immunodeficiency virus (HIV) type 1 protease inhibitor brecanavir (GW640385) in combination with other antiretrovirals and against a panel of protease inhibitor-resistant HIV (Hazen et al., “In vitro antiviral activity of the novel, tyrosyl-based human immunodeficiency virus (HIV) type 1 protease inhibitor brecanavir (GW640385) in combination with other antiretrovirals and against a panel of protease inhibitor-resistant HIV”, Antimicrob. Agents Chemother. 2007, 51: 3147-3154; and Pauwels et al., “Sensitive and rapid assay on MT-4 cells for the detection of antiviral compounds against the AIDS virus”, J. of Virological Methods 1987, 16: 171-185).
# Luciferase activity was measured 96 hours later by adding a cell titer glo (Promega, Madison, Wis.). Percent inhibition of cell protection data was plotted relative to no compound control. Under the same condition, cytotoxicity of the compounds was determined using cell titer Glo™ (Promega, Madison, Wis.). IC50s were determined from a 10 point dose response curve using 3-4-fold serial dilution for each compound, which spans a concentration range >1000 fold. […]
compound,measurement,value
"Cc1c(-c2c(C)c3c(c(C)c2[C@H](OC(C)(C)C)C(=O)O)CN(C(=O)c2cccc(F)c2)[C@@H]3C)cc(F)c2c1CCCO2 (atropisomer, axis not shown; (M)) [Example 1]",IC50,1.7 nM
